Inconclusive results are not listed. The source made the active and inactive calls. No rule for the calls is given here.
Tested on: orthopoxvirus-infected cells, imaging factory/early/late reporters
Test: orthopoxvirus gene expression and factory formation inhibitors, imaging, low MOI, factory DAPI readout, single point, dry powder (AID 1117276)
Conditions: at 10 µM; stronger effect = higher value

In the case of `C[C@@H](O)C#Cc1ccc2c(c1)O[C@@H](CN(C)Cc1ccc(-c3ccccc3)cc1)[C@@H](C)CN([C@@H](C)CO)S2(=O)=O`, the activity score, factory formation (DAPI) is reported as 36 (inactive).

— PubChem BioAssay AID1117276 (Broad Institute, 2014)
